Test results: ChEMBL document CHEMBL1201862, “PubChem BioAssay data set” (2004)
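1) Cells in 96-well plates. 2) Compound, 48 h, 5 concentrations. 3) Linear interpolation between surrounding doses. 4) Unreached endpoint = highest concentration. GI50 is the concentration that inhibits growth by half.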 Activity calls are given as the source filed them. No stated cut-off is given here; in the data, active = GI50 up to about 1.1 µM and inactive = higher.

Legend:
Assay in all cases: growth of human tumour cells (NCI), 48 h
RPMI-8226 = tested on: RPMI-8226
NCI/ADR-RES = tested on: NCI/ADR-RES
NCI-H226 = tested on: NCI-H226
SK-MEL-5 = tested on: SK-MEL-5
IGROV-1 = tested on: IGROV-1
SN12C = tested on: SN12C
UACC-62 = tested on: UACC-62
HL-60 = tested on: HL-60
ACHN = tested on: ACHN
OVCAR-8 = tested on: OVCAR-8
MOLT-4 = tested on: MOLT-4
SK-MEL-28 = tested on: SK-MEL-28
SW-620 = tested on: SW-620
MDA-MB-231 = tested on: MDA-MB-231
SK-OV-3 = tested on: SK-OV-3

SMILES | GI50 (RPMI-8226) | GI50 (NCI/ADR-RES) | GI50 (NCI-H226) | GI50 (SK-MEL-5) | GI50 (IGROV-1) | GI50 (SN12C) | GI50 (UACC-62) | GI50 (HL-60) | GI50 (ACHN) | GI50 (OVCAR-8) | GI50 (MOLT-4) | GI50 (SK-MEL-28) | GI50 (SW-620) | GI50 (MDA-MB-231) | GI50 (SK-OV-3)
N/C(=N\c1ccc(Cl)cc1)NS(=O)(=O)c1c(C(F)(F)F)cccc1C(F)(F)F | > 100 µM (inactive) | 12.2 µM (inactive) | 27.6 µM (inactive) | 17.5 µM (inactive) | 16.6 µM (inactive) | 16.1 µM (inactive) | 8.34 µM (inactive) | 20 µM (inactive) | 14.5 µM (inactive) | 20.7 µM (inactive) | > 100 µM (inactive) | 62.5 µM (inactive) | 33.3 µM (inactive) | 22.2 µM (inactive) | 35.2 µM (inactive)
CC(C)(O)C1COC2=C1C(=O)c1ccccc1C2=O (stereo not drawn) | 44.8 µM (inactive) | 19.1 µM (inactive) | 32.5 µM (inactive) | 22.3 µM (inactive) | 40.6 µM (inactive) | 27.8 µM (inactive) | 22.9 µM (inactive) | 18.9 µM (inactive) | 48.2 µM (inactive) | 22.5 µM (inactive) | 25.6 µM (inactive) | 23.2 µM (inactive) | 23 µM (inactive) | 38.7 µM (inactive) | > 100 µM (inactive)
O=C1O/C(=C\c2ccccc2)N(c2ccccc2)C1=O | > 100 µM (inactive) | > 100 µM (inactive) | > 100 µM (inactive) | > 100 µM (inactive) | > 100 µM (inactive) | > 100 µM (inactive) | > 100 µM (inactive) | > 100 µM (inactive) | > 100 µM (inactive) | > 100 µM (inactive) | > 100 µM (inactive) | > 100 µM (inactive) | > 100 µM (inactive) | > 100 µM (inactive) | > 100 µM (inactive)
Cc1nc2sc(CCl)nn2c(=O)c1Cl | 5.62 µM (inactive) | 18.8 µM (inactive) | 14.9 µM (inactive) | 5.07 µM (inactive) | 15 µM (inactive) | 12.3 µM (inactive) | 14 µM (inactive) | 13.1 µM (inactive) | 15.7 µM (inactive) | 14 µM (inactive) | 6.03 µM (inactive) | 12.8 µM (inactive) | 10.4 µM (inactive) | 20.5 µM (inactive) | 14.6 µM (inactive)
CC1(C)CCC[C@@]2(C)C1CC[C@@]1(CO1)[C@@H]2/C=C\C(C=O)CC=O (stereo partly drawn) | 10.9 µM (inactive) | > 100 µM (inactive) | > 100 µM (inactive) | > 100 µM (inactive) | > 100 µM (inactive) | > 68.1 µM (inactive) | > 100 µM (inactive) | 21.6 µM (inactive) | > 100 µM (inactive) | > 100 µM (inactive) | 21.5 µM (inactive) | > 100 µM (inactive) | 67.1 µM (inactive) | > 100 µM (inactive) | > 100 µM (inactive)
Cc1nc(C(N)=S)sc1C(=O)CC(=O)C(=O)Nc1ccc(Br)cc1 | > 100 µM (inactive) | > 100 µM (inactive) | > 100 µM (inactive) | > 100 µM (inactive) | > 100 µM (inactive) | > 100 µM (inactive) | > 100 µM (inactive) | > 100 µM (inactive) | > 100 µM (inactive) | > 100 µM (inactive) |  | > 100 µM (inactive) | > 100 µM (inactive) | > 100 µM (inactive) | > 100 µM (inactive)
CN1C(=O)[C@](C)(Cc2ccc(F)cc2)N(C(=O)OC(C)(C)C)[C@@H]1C(C)(C)C | 22.4 µM (inactive) | 20.4 µM (inactive) | 23.6 µM (inactive) | 19.6 µM (inactive) | 43.9 µM (inactive) | 17.9 µM (inactive) | 32 µM (inactive) | 11.4 µM (inactive) | 37.7 µM (inactive) | 28.8 µM (inactive) | 17.9 µM (inactive) | 55.3 µM (inactive) | 37.3 µM (inactive) | 38.1 µM (inactive) | 43.9 µM (inactive)
N#CCCN(CCC#N)CCN(CCN(CCC#N)CCC#N)CCN(CCC#N)CCC#N | > 100 µM (inactive) | > 100 µM (inactive) | > 100 µM (inactive) | > 100 µM (inactive) | > 100 µM (inactive) | > 100 µM (inactive) |  | > 100 µM (inactive) | > 100 µM (inactive) | > 100 µM (inactive) | > 100 µM (inactive) | > 100 µM (inactive) | > 100 µM (inactive) | > 100 µM (inactive) | > 100 µM (inactive)
COc1ccc(C#CC(=O)O)c(OC)c1 | > 100 µM (inactive) | > 100 µM (inactive) | > 100 µM (inactive) | > 100 µM (inactive) |  | > 100 µM (inactive) | > 100 µM (inactive) | > 100 µM (inactive) | > 100 µM (inactive) | > 100 µM (inactive) | > 100 µM (inactive) | > 100 µM (inactive) | > 100 µM (inactive) | > 100 µM (inactive) | > 100 µM (inactive)
Cc1cccc(NC(=O)O/N=C(\Cl)C(C)C)c1 | 2.96 µM (inactive) | 21.3 µM (inactive) | 18.6 µM (inactive) | 16.4 µM (inactive) | 17.5 µM (inactive) | 3.37 µM (inactive) | 15.9 µM (inactive) | 1.94 µM (inactive) | 2.02 µM (inactive) | 19.4 µM (inactive) | 2.15 µM (inactive) | 7.19 µM (inactive) | 2.19 µM (inactive) | 17.9 µM (inactive) | 17.7 µM (inactive)
C=C(C(=O)O)[C@@H]1C[C@@H](OC(C)=O)[C@]2(C)CC/C=C(\C)CCC[C@H](C)[C@H](O)[C@@H]1O2 | 17 µM (inactive) | 33.3 µM (inactive) | 14.9 µM (inactive) | 30.2 µM (inactive) | 36.8 µM (inactive) | 60.4 µM (inactive) | 47.8 µM (inactive) | 22.3 µM (inactive) | 55.7 µM (inactive) | 27.5 µM (inactive) | 24.7 µM (inactive) | 77.4 µM (inactive) | 40.1 µM (inactive) | > 100 µM (inactive) | 34.5 µM (inactive)
COc1cc2c(cc1OC)C1(c3ccccc3)CN(C2)Cc2cc(OC)c(OC)cc21 | 26 µM (inactive) | 25.4 µM (inactive) | 26.7 µM (inactive) | 18.6 µM (inactive) | 35.2 µM (inactive) | > 100 µM (inactive) | 32.3 µM (inactive) | 19.3 µM (inactive) | 54.1 µM (inactive) | 40.6 µM (inactive) | 25.5 µM (inactive) | > 100 µM (inactive) | 33.6 µM (inactive) | 24.3 µM (inactive) | 45.8 µM (inactive)
CCC(C)C1=C(O)[N+]2([O-])Oc3ccc(-c4c(O)c(O)c(-c5ccc(O)cc5)c(OC(C)=O)c4OC(C)=O)cc3OC2(C(C)CC)C(=O)N1O (stereo not drawn) | > 50 µM (inactive) | > 50 µM (inactive) | > 50 µM (inactive) | > 50 µM (inactive) | > 50 µM (inactive) | > 50 µM (inactive) | > 50 µM (inactive) | > 50 µM (inactive) | > 50 µM (inactive) | > 50 µM (inactive) | 43.8 µM (inactive) | > 50 µM (inactive) | > 50 µM (inactive) | > 50 µM (inactive) | > 50 µM (inactive)
Cn1c(=O)c2c(nc3sc4nc5ccccc5nc4n32)n(C)c1=O | > 100 µM (inactive) | > 100 µM (inactive) | > 100 µM (inactive) | 32.7 µM (inactive) | > 100 µM (inactive) | 85.9 µM (inactive) | > 100 µM (inactive) | > 100 µM (inactive) | > 100 µM (inactive) | > 100 µM (inactive) | > 100 µM (inactive) |  |  | > 100 µM (inactive) | > 100 µM (inactive)
Cc1ccc([S+]([O-])C[C@](NC(=O)OCc2ccccc2)(Sc2ccccc2)C(F)F)cc1 (stereo partly drawn) | 10.4 µM (inactive) | 17 µM (inactive) | 12.9 µM (inactive) | 13.3 µM (inactive) | 8.69 µM (inactive) |  | 14.8 µM (inactive) | 4.12 µM (inactive) | 20.7 µM (inactive) | 19.1 µM (inactive) | 3.4 µM (inactive) | 18 µM (inactive) | 19.6 µM (inactive) | 19.4 µM (inactive) | 16.7 µM (inactive)
C/C(=N\Nc1nc2ccccc2n1C)c1ccncn1 | 0.0202 µM (active) | 0.0395 µM (active) | 0.29 µM (active) | 0.102 µM (active) | 0.0233 µM (active) | 0.0243 µM (active) | 0.125 µM (active) | < 0.01 µM (active) | 0.0266 µM (active) | < 0.0238 µM (active) | < 0.01 µM (active) | 0.0378 µM (active) | < 0.018 µM (active) | 0.0389 µM (active) | 0.182 µM (active)
O=C1OI(C#Cc2ccccc2)c2ccccc21 | 1.57 µM (inactive) | 5.98 µM (inactive) | 5.26 µM (inactive) | 2.19 µM (inactive) | 2.14 µM (inactive) | 4.16 µM (inactive) | 5.04 µM (inactive) | 1.12 µM (active) | 2.18 µM (inactive) | 4.39 µM (inactive) | 1.63 µM (inactive) | 5.48 µM (inactive) | 2.19 µM (inactive) | 6.1 µM (inactive) | 12.2 µM (inactive)
CC(C)(C)c1c(C(C)(C)C)c(=O)c1=O | > 100 µM (inactive) | > 100 µM (inactive) | > 100 µM (inactive) | > 100 µM (inactive) |  | > 100 µM (inactive) | > 100 µM (inactive) | > 100 µM (inactive) | > 100 µM (inactive) | > 100 µM (inactive) | > 100 µM (inactive) | > 100 µM (inactive) | > 100 µM (inactive) | > 100 µM (inactive) | > 100 µM (inactive)
COC(=O)C1[C@H](C(=O)OC)C1(Br)CBr (stereo partly drawn) | > 100 µM (inactive) | > 100 µM (inactive) | > 100 µM (inactive) | > 100 µM (inactive) | > 100 µM (inactive) | > 100 µM (inactive) | > 100 µM (inactive) | > 100 µM (inactive) | > 100 µM (inactive) | > 100 µM (inactive) | 40.1 µM (inactive) | > 100 µM (inactive) | > 100 µM (inactive) | > 100 µM (inactive) | > 100 µM (inactive)
